{
  "source": "patent US7160916B2",
  "about": "“Method of increasing bone density or treating osteoporosis” (Yung Shin Pharmaceutical Ind. Co., Ltd., priority 2003, dated 2007)",
  "format_in_all_cases": "cell-based, rat",
  "key": {"Day-3 osteoblasts": {"system": "Day-3 osteoblasts", "assay": "Fibronectin fibrillogenesis by immunocytochemistry", "conditions": "10 μM for 24 hr", "experimental": "(§1) Fibronectin (Fn) plays an important role in the regulation of adhesion, migration, and maturation of osteoblasts. Fn fibrillogenesis is involved in the process of bone mineralization. The effect of Indazole 1 on Fn fibrillogenesis in cultured osteoblasts was examined. The immobilized form of fibrillogenesis from the endogenously released Fn by monolayer Day 3˜5 osteoblasts was studied using immunocytochemistry. Incubation of Day-3 osteoblasts with Indazole 1 (10 μM) for 24 hr increased extracellular Fn assembly. Flow cytometry was used to analyze the effect of Indazole 1 on the surface expression of α5 and β1 integrins. […] On the other hand, the collagen synthesis was increased by Indazole 1 only at a higher concentration of 10 μM."}, "α5 and β1 integrins": {"system": "α5 and β1 integrins", "assay": "Flow cytometry of surface expression of integrins", "conditions": "treatment for 24 hr", "experimental": "as §1"}, "Primary osteoblast cells": {"system": "Primary osteoblast cells", "assay": "von Kossa staining, bone nodule formation", "conditions": "treatment for 2 weeks", "experimental": "Primary osteoblast cultures: Primary osteoblast cells were prepared from calvaria of 18-day-old fetal Sprague-Dawley (SD) rats according to the following method: Pregnant rats were put in anesthesia using intraperitoneal injection of trichloroacetaldehyde (200 mg/kg). The calvaria of the fetal rats were then dissected with aseptic technique. Soft tissues were removed under a dissecting microscope. The calvaria were divided into small pieces and then treated with 0.1% collagenase (Sigma Chemical, St. Louis, Mo.) solution for 10 minutes at 37° C. The cells released from the calvariae by two 20-minute sequential collagenase digestions were pooled and filtered through 70 μm nylon filters (Falcon, BD BioSciences, San Jose, Calif.). […]\nvon Kossa staining: Osteoblasts were cultured in DMEM containing 50 μg/ml vitamin C and 10 mM β-glycerophosphate for 2 weeks and the medium was changed every 3 days. […] The number of nodules formed per well was counted under a light microscope. Collagen synthesis was determined by measuring the 4-hydroxyproline content in cultured osteoblasts. […] After lyophilizing and reconstituting a lysate in distilled water, the amount of 4-hydroxyproline was determined by spectrophotometry at 550 nm as described by Berg (1982) Meth Enzymol. […]"}, "Osteoblasts": {"system": "Osteoblasts", "assay": "Assay of cell proliferation (BrdU incorporation)", "experimental": "Primary osteoblast cultures: Primary osteoblast cells were prepared from calvaria of 18-day-old fetal Sprague-Dawley (SD) rats according to the following method: Pregnant rats were put in anesthesia using intraperitoneal injection of trichloroacetaldehyde (200 mg/kg). The calvaria of the fetal rats were then dissected with aseptic technique. Soft tissues were removed under a dissecting microscope. The calvaria were divided into small pieces and then treated with 0.1% collagenase (Sigma Chemical, St. Louis, Mo.) solution for 10 minutes at 37° C. The cells released from the calvariae by two 20-minute sequential collagenase digestions were pooled and filtered through 70 μm nylon filters (Falcon, BD BioSciences, San Jose, Calif.). The cells were then grown on plastic cell culture dishes in 95:5 air-CO2 with Dulbecco's modified Eagle's medium (DMEM) (Gibco, Grand Island, N.Y.) which was supplemented with 20 mM HEPES and 10% heat-inactivated FCS, 2 mM-glutamine, penicillin (100 U/ml) and streptomycin (100 μg/ml) (pH adjusted to 7.6). The cell medium was changed twice a week. Osteoblasts were confirmed by morphology and expression of alkaline phosphatase (ALP). […] BrdU incorporation was assayed according to the protocol of enzyme-linked immunosorbent assay chemiluminescence detection kit (Roche Molecular Biochemicals) using a luminescence counter (TopCount; Packard Instruments, Meriden, Conn.). […]"}},
  "data": [
    {"smiles": "OCc1ccc(-c2nn(Cc3ccccc3)c3ccccc23)o1", "note": "[Indazole 1, 1-benzyl-3-(5′-hydroxymethyl-2′-furyl)-indazole]", "values": [
      {"measurement": "extracellular Fn assembly", "setting": "Day-3 osteoblasts", "value": "increased"},
      {"measurement": "cell surface expression of α5 and β1 integrins", "setting": "α5 and β1 integrins", "value": "increased"},
      {"measurement": "number of bone nodules (von Kossa staining)", "setting": "Primary osteoblast cells", "value": "increased the number of bone nodules in a concentration-dependent manner"},
      {"measurement": "proliferation of osteoblasts", "setting": "Osteoblasts; 0.1 μM", "value": "119.3 % of control"},
      {"measurement": "proliferation of osteoblasts", "setting": "Osteoblasts; 1 μM", "value": "126.1 % of control"}
    ]}
  ]
}
